{"source": "patent US4382934A", "about": "“Isatin derivatives, processes for the preparation thereof and pharmaceutical composition comprising the same” (Fujisawa Pharmaceutical Co., Ltd., priority 1978, dated 1983)", "test_system": "anaphylactic asthma in guinea-pigs", "test": "Antagonism to anaphylactic asthma in guinea-pigs", "assay_type": "in vivo, guinea-pig (male Hartley)", "conditions": "30 min before egg albumin aerosol; for Inhibitory effect of anaphylactic asthma in guinea-pig: survival more than 2 hours", "protocol": "(1) Preparation of rabbit antiserum against egg albumin\nEqual volumes of a saline solution of egg albumin (200 mg./ml.) and of Freund's Complete Ajuvant were mixed and emulsified. Each male New Zealand white strain rabbits, each weighing 2 to 2.5 kg., received an intramuscular injection of 0.5 ml. of the emulsion in the left and right thigh regions. One week later, they received an intradermal injection of 0.25 ml. of a saline solution of egg albumin (concentration: 20 mg./ml.) in the different four sites of the dorsal skin surface three times every other week. Blood samples were collected from the carotid artery one week after the last injection.\n(2) Determination of Passive Cutaneous Anaphylaxis (PCA) titer\nThe level of anaphylactic anti-egg albumin antibodies in pools of sera were determined by passive cutaneous anaphylaxis (PCA) reactions using shaven Hartley strain test guinea-pigs.\nAntiserum was serially diluted (two fold) in saline and 0.1 ml. of each antiserum dilution were injected intradermally into the dorsal skin surface of the test guinea-pigs. 24 Hours after intradermal sensitization,Egg albumin-specific PCA reactions were elicited by intravenous injection of 10 mg. of egg albumin in 1 ml. of 1% Evans blue dye dissolved in saline. Reactions were read and recorded as the highest dilution of serum evoking threshold PCA reactivity (5 mm diameter).\n(3) Antagonism to anaphylactic asthma in guinea-pigs\nMale Hartley stain guinea-pigs, weighing 305 to 400 g, were used. Animals were sensitized by an intravenous injection of rabbit antiserum against egg albumin (4000 PCA titer) with 0.5 ml./animal. After 24 hours, animals were placed individually in a plastic chamber of 5.3 liter volume. An aerosol of 5% egg albumin solution was sprayed in the chamber at a rate of 0.16 ml./min with a commercial nebulizer. The test compound was given to the animals orally 30 minutes before the challenge with the egg albumin solution. Each dose group consisted of ten animals. The inhibitory effect of the test compound was determined from the number of surviving animals more than 2 hours after spray of the antigen. The ED50 value (dose to be required 50% protection from death) was calculated according to Litchfield-Wilcoxon method.", "data": [{"smiles": "O=C1C(=O)N(CCCN2CCN(C(c3ccccc3)c3ccccc3)CC2)c2ccccc21", "note": "[1-[3-(4-Benzhydryl-1-piperazinyl)propyl]isatin]", "values": [{"measurement": "Inhibitory effect of anaphylactic asthma in guinea-pig", "setting": "0.1 mg./kg. P.O.", "result": 0, "unit": "%"}, {"measurement": "Inhibitory effect of anaphylactic asthma in guinea-pig", "setting": "1.0 mg./kg. P.O.", "result": 20, "unit": "%"}, {"measurement": "Inhibitory effect of anaphylactic asthma in guinea-pig", "setting": "3.2 mg./kg. P.O.", "result": 40, "unit": "%"}, {"measurement": "Inhibitory effect of anaphylactic asthma in guinea-pig", "setting": "10.0 mg./kg. P.O.", "result": 80, "unit": "%"}, {"measurement": "Inhibitory effect of anaphylactic asthma in guinea-pig", "setting": "32.0 mg./kg. P.O.", "result": 100, "unit": "%"}, {"measurement": "Inhibitory effect of anaphylactic asthma in guinea-pig", "setting": "100.0 mg./kg. P.O.", "result": 100, "unit": "%"}, {"measurement": "ED50", "setting": "Cavia porcellus, po, 2 h, P.O., Litchfield-Wilcoxon method, read-out: ED50 (dose to be required 50% protection from death)", "result": 3.4, "unit": "mg/kg"}]}]}
